Values of other authors, collected in patent US6521254B2, “Single-dose antihistamine/decongestant formulations for treating rhinitis” (J-Med Pharmaceuticals, Inc., priority 1998, dated 2003).

Tests used:
histamine receptors = conditions: for duration of therapeutic benefit suitable for dosing interval (FDA standard, labeling): cetirizine 5 mg and 10 mg, loratidine 10 mg, fexofenadine 180 mg
[1] = compared with other non-sedating and with sedating antihistamines
[2] = 30 mg pseudoephedrine, immediate release, syrup

Structure (SMILES)	duration of therapeutic antihistaminic benefit (histamine receptors; 5 mg cetirizine, immediate release) [h]	duration of therapeutic benefit suitable for dosing interval (FDA standard, labeling) (histamine receptors) [h]	duration of antihistaminic effect (histamine receptors; oral, human) [h]	time after dosing at which antihistaminic effect is exerted (onset) (histamine receptors; oral, human, given alone / immediate release)	sedation [1]	duration of action [2] [h]
O=C(O)COCCN1CCN(C(c2ccccc2)c2ccc(Cl)cc2)CC1 (centres unmarked) [cetirizine]	24	24	24	one	slightly more sedation than other non-sedating antihistamines	–
CCOC(=O)N1CCC(=C2c3ccc(Cl)cc3CCc3cccnc32)CC1 [loratidine]	–	24	> 24	–	–	–
CN[C@@H](C)[C@@H](O)c1ccccc1 [pseudoephedrine]	–	–	–	–	–	4 to 6
